According to US20210261636A1, “NEOANTIGENS EXPRESSED IN MULTIPLE MYELOMA AND THEIR USES” (Janssen Biotech, Inc., priority 2020, published 2021):

Assays:
CD4+ T cells = assay: Exogenous autologous healthy donor restimulation assay, TNFα and IFNγ production by CD4+ T cells; assay type: cell-based, human; set-up: Frequency (TNFα+ IFNγ+ CD4 T cells): unit not given here; conditions: donor independent, peptide pool 10 μg/mL, healthy donors; for Fold change (CD4+) vs. DMSO: maximum CD4+ T-cell response (TNFα and IFNγ); for Frequency (TNFα+ IFNγ+ CD4 T cells): maximum CD4+ T-cell response
Experimental: (§1) Immunogenicity responses were measured by estimating TNFα IFNγ double positive cells in the CD4+ and/or CD8+ T-cell populations. A response is considered positive if TNFα IFNγ double positive fraction was greater than or equal to three-fold over unstimulated cells (DMSO negative control) with a minimum frequency >=0.01%. […]
(§2) Overlapping 15-mer peptides were designed to span each indicated neoantigen. Their ability to activate T cells was assessed using known methods, such as the assay defnied as exogenous autologous normal donor restimulation assay. The peptides were used as pools using TNFα and IFNγ production by CD8^+ and CD4^+ T cells as a readout. Maximum frequency of CD8^+TNFα^+IFNγ^+ and CD4^+TNFα^+IFNγ^+ T cells and maximum fold change over background for each pool of peptides were analyzed, which were calculated as the highest frequency of CD8^+ TNFα^+IFNγ^+ and CD4^+ TNFα^+IFNγ^+ T cells and resulting fold change across the normal donors evaluated for the peptide.
(§3) CD1c+Dendritic Cells (CD1c+DC) isolated from human healthy PBMCs were thawed using media (IMDM (Gibco) supplemented with glutamine, HEPES, 5% human serum (Sigma), and 1× Pen-Strep). DC cells were resuspended in media supplemented with IL-4 (Peprotech, 20 ng/mL) and GM-CSF (Gibco, 20 ng/mL), plated in 6 well microplates, and rested overnight at 37° C. and 5% CO2 incubator. The following day, DC cells were counted and plated in a 96 well round bottom microplate at a concentration of 30,000 viable cells per well. Lyophilized neoantigen peptide pools (15-mer peptides with 8-mer overlapping peptide sequences) were solubilized in 100% DMSO with a stock concentration of 20 mg/mL Neoantigen peptides pools were added to DCs for a final concentration of 10 μg/mL and rested for 2 hours at 37° C. and 5% CO2 incubator. CEF Peptide Pool “Plus” (Cellular Technologies, Ltd.) was utilized as a positive control (each viral peptide at a final concentration of 4 ug/ml) and DMSO at the same final concentration (0.05%) as the experimental peptides was utilized as a negative control. After 2 hours, DC cells were irradiated with 50 gray of ionizing radiation. Autologous CD3+ Pan-T cells isolated from human normal PBMCs were thawed using media. Following irradiation, autologous Pan-T cells were added to the irradiated DCs at 300,000 viable cells per well. Human IL-15 (Peprotech) was added to all wells at final concentration of 10 ng/ml. Plates were incubated at 37° C. and 5% CO2 incubator for a total of 12 days. Media was refreshed every 2-3 days with IL-15 (R&D System, 10 ng/mL final concentration) and IL-2 (R&D systems, 10 IU/mL final concentration).
(§4) On Day 11, cells were re-stimulated with identical experimental peptide pools or controls, at same concentration as peptide stimulation on Day 1. Protein Inhibitor Cocktail (eBioscience) was added to every well and plate was incubated overnight for 14-16 hours at 37° C. and 5% CO2 incubator. On Day 12, cells were stained for surface and intracellular flow cytometry analysis. The cells were washed with PBS and stained with Live/Dead Fixable Aqua Dead Cell stain (Thermo-Fisher). Following the live/dead stain, cells were blocked using Biotin-Free Fc Receptor Blocker (Accurate Chemical & Scientific Corp). Extracellular cellular flow panel (1 μL/antibody per well in 50 μL) consisted of CD3 PerCP-Cy5.5 (Biolegend), CD4 BV421 (Biolegend), and CD8 APC-Cy7 (Biolegend). After extracellular staining, cells were fixed and permeabilized using Foxp3/Transcription Factor Staining Buffer Set (eBioscience) and stained for intracellular proteins (1:50 dilution) using TNFα FITC (R&D Systems) and IFNγ BV785 (Biolegend). Cells were washed and resuspended in stain buffer, analyzed, and recorded in a BD Celesta flow cytometer.
(§5) Flow cytometry analysis was conducted on FlowJo v10.6 software. Cells were gated on live, singlet, CD3+, CD4+ and CD8+ T cells. The CD8+ and CD4+ T cells were analyzed for TNFα and IFNγ expression. […]

CD8+ T cells = assay: Exogenous autologous healthy donor restimulation assay, TNFα and IFNγ production by CD8+ T cells; assay type: cell-based, human; set-up: Frequency (TNFα+ IFNγ+ CD8 T cells): unit not given here; conditions: for Fold change (CD8+) vs. DMSO: maximum CD8+ T-cell response (TNFα and IFNγ); for Fold change (CD8+) vs. DMSO / Frequency (TNFα+ IFNγ+ CD8 T cells): donor independent, peptide pool 10 μg/mL, healthy donors; for Frequency (TNFα+ IFNγ+ CD8 T cells): maximum CD8+ T-cell response; for Immunogenic (yes/no): positive if CD8+ and/or CD4+ double positive TNFα/IFNγ frequency >=3-fold over DMSO and at least 0.01%
Experimental: as §1, §2, §3, §4, §5

## IENEGGQVRSRPAPS [AS56, alternative splicing, ADGRE5]
CD4+ T cells
  Fold change (CD4+) vs. DMSO: 3.71
  Frequency (TNFα+ IFNγ+ CD4 T cells): 0.019
CD8+ T cells
  Fold change (CD8+) vs. DMSO: 5
  Frequency (TNFα+ IFNγ+ CD8 T cells): 0.069
  Immunogenic (yes/no): Yes

## NAVRSYYEGTENIVAV [FUS18, gene fusion CADPS2-> RNF148]
CD4+ T cells
  Fold change (CD4+) vs. DMSO: 0.95
  Frequency (TNFα+ IFNγ+ CD4 T cells): 0.005
CD8+ T cells
  Fold change (CD8+) vs. DMSO: 542.51
  Frequency (TNFα+ IFNγ+ CD8 T cells): 0.671
  Immunogenic (yes/no): Yes

## GEVKWSVGSRTSLLL [FUS38, gene fusion CD79B-> GH1]
CD4+ T cells
  Fold change (CD4+) vs. DMSO: 4.06
  Frequency (TNFα+ IFNγ+ CD4 T cells): 0.007
CD8+ T cells
  Fold change (CD8+) vs. DMSO: 23.41
  Frequency (TNFα+ IFNγ+ CD8 T cells): 0.18
  Immunogenic (yes/no): Yes

## LARQISFKSLI [FUS14, gene fusion UBE2J1-> GABRR2]
CD4+ T cells
  Fold change (CD4+) vs. DMSO: 256.93
  Frequency (TNFα+ IFNγ+ CD4 T cells): 0.19
CD8+ T cells
  Fold change (CD8+) vs. DMSO: 3.27
  Frequency (TNFα+ IFNγ+ CD8 T cells): 0.005
  Immunogenic (yes/no): Yes

## MKQFLDFGECGPGPWAFLRGPGRGAAAAAPGRVGAGQLSPEAHPSSSAFPPPAP [AS10, alternative splicing, PDK1]
CD4+ T cells
  Fold change (CD4+) vs. DMSO: 76.818
  Frequency (TNFα+ IFNγ+ CD4 T cells): 0.028
CD8+ T cells
  Fold change (CD8+) vs. DMSO: 70.588
  Frequency (TNFα+ IFNγ+ CD8 T cells): 12
  Immunogenic (yes/no): Yes

## FSQNMNTKMIRGTERKQQYYGLQILE [AS134, alternative splicing, XPO1]
CD4+ T cells
  Fold change (CD4+) vs. DMSO: 1.429
  Frequency (TNFα+ IFNγ+ CD4 T cells): 0.02
CD8+ T cells
  Fold change (CD8+) vs. DMSO: 4.51
  Frequency (TNFα+ IFNγ+ CD8 T cells): 0.091
  Immunogenic (yes/no): Yes

## TVPASQKLSCSLDPKHLRQFHL [AS30, alternative splicing, BLNK]
CD4+ T cells
  Fold change (CD4+) vs. DMSO: 2.23
  Frequency (TNFα+ IFNγ+ CD4 T cells): 0.012
CD8+ T cells
  Fold change (CD8+) vs. DMSO: 13.86
  Frequency (TNFα+ IFNγ+ CD8 T cells): 0.082
  Immunogenic (yes/no): Yes

## FALMASLGIPQTMAA [FUS56, gene fusion ZNF772-> VN1R1]
CD4+ T cells
  Fold change (CD4+) vs. DMSO: 115.03
  Frequency (TNFα+ IFNγ+ CD4 T cells): 0.75
CD8+ T cells
  Fold change (CD8+) vs. DMSO: 2.73
  Frequency (TNFα+ IFNγ+ CD8 T cells): 0.007
  Immunogenic (yes/no): Yes

## SGLLMNTLTVLILYFLY [FUS9, gene fusion EAF2-> SLC15A2]
CD4+ T cells
  Fold change (CD4+) vs. DMSO: 3.08
  Frequency (TNFα+ IFNγ+ CD4 T cells): 0.031
CD8+ T cells
  Fold change (CD8+) vs. DMSO: 5.53
  Frequency (TNFα+ IFNγ+ CD8 T cells): 0.13
  Immunogenic (yes/no): Yes

## ILAQKKKDELSS [AS93, alternative splicing, TJP1]
CD4+ T cells
  Fold change (CD4+) vs. DMSO: 9.9
  Frequency (TNFα+ IFNγ+ CD4 T cells): 0.015
CD8+ T cells
  Fold change (CD8+) vs. DMSO: 1.44
  Frequency (TNFα+ IFNγ+ CD8 T cells): 0.014
  Immunogenic (yes/no): Yes

## PPLITNVTEKPWKHTRIEMPLARLTRP [FUS51, gene fusion POU2AF1-> COLCA1]
CD4+ T cells
  Fold change (CD4+) vs. DMSO: 11.93
  Frequency (TNFα+ IFNγ+ CD4 T cells): 0.061
CD8+ T cells
  Fold change (CD8+) vs. DMSO: 200
  Frequency (TNFα+ IFNγ+ CD8 T cells): 0.06
  Immunogenic (yes/no): Yes

## QLSVVTRDDYNSSELK [AS87, alternative splicing, BMP6]
CD4+ T cells
  Fold change (CD4+) vs. DMSO: 4.45
  Frequency (TNFα+ IFNγ+ CD4 T cells): 0.016
CD8+ T cells
  Fold change (CD8+) vs. DMSO: 44.64
  Frequency (TNFα+ IFNγ+ CD8 T cells): 1.25
  Immunogenic (yes/no): Yes

## RQLQQQLSSLSGPEGVPFLKLWCLDDLLSTLLGTCRCPSRAQF [FUS57, gene fusion MED12-> NLGN3]
CD4+ T cells
  Fold change (CD4+) vs. DMSO: 11.65
  Frequency (TNFα+ IFNγ+ CD4 T cells): 0.24
CD8+ T cells
  Fold change (CD8+) vs. DMSO: 17.2
  Frequency (TNFα+ IFNγ+ CD8 T cells): 0.14
  Immunogenic (yes/no): Yes

## PVILFKGKVRPIP [AS67, alternative splicing, MTMR14]
CD4+ T cells
  Fold change (CD4+) vs. DMSO: 8.57
  Frequency (TNFα+ IFNγ+ CD4 T cells): 0.071
CD8+ T cells
  Fold change (CD8+) vs. DMSO: 28.23
  Frequency (TNFα+ IFNγ+ CD8 T cells): 0.52
  Immunogenic (yes/no): Yes

## VYYLYKNVAYKGSDID [AS86, alternative splicing, ATP10B]
CD4+ T cells
  Fold change (CD4+) vs. DMSO: 12.54
  Frequency (TNFα+ IFNγ+ CD4 T cells): 0.019
CD8+ T cells
  Fold change (CD8+) vs. DMSO: 2.7
  Frequency (TNFα+ IFNγ+ CD8 T cells): 0.018
  Immunogenic (yes/no): Yes

## PKVFPKNQVISLIPKAQEDPEHT [AS127, alternative splicing, ST3GAL6]
CD4+ T cells
  Fold change (CD4+) vs. DMSO: 7.179
  Frequency (TNFα+ IFNγ+ CD4 T cells): 0.14
CD8+ T cells
  Fold change (CD8+) vs. DMSO: 1.44
  Frequency (TNFα+ IFNγ+ CD8 T cells): 0.08
  Immunogenic (yes/no): Yes

## FLQKHGNENTVLMLETLSEIRYGYVSCVCCPLLSPYGRCLN [AS26, alternative splicing, AGFG1]
CD4+ T cells
  Fold change (CD4+) vs. DMSO: 5.7
  Frequency (TNFα+ IFNγ+ CD4 T cells): 0.097
CD8+ T cells
  Fold change (CD8+) vs. DMSO: 84.36
  Frequency (TNFα+ IFNγ+ CD8 T cells): 0.75
  Immunogenic (yes/no): Yes

## VAPSGLYYCG [FUS34, gene fusion CLN6-> CALML4]
CD4+ T cells
  Fold change (CD4+) vs. DMSO: 8.33
  Frequency (TNFα+ IFNγ+ CD4 T cells): 0.015
CD8+ T cells
  Fold change (CD8+) vs. DMSO: 8.7
  Frequency (TNFα+ IFNγ+ CD8 T cells): 0.013
  Immunogenic (yes/no): Yes

## GFFETEMAVPFFSRKIRKVRRAIMKWTFCCYFY [AS118, alternative splicing, IARS]
CD4+ T cells
  Fold change (CD4+) vs. DMSO: 7.692
  Frequency (TNFα+ IFNγ+ CD4 T cells): 0.15
CD8+ T cells
  Fold change (CD8+) vs. DMSO: 106.428
  Frequency (TNFα+ IFNγ+ CD8 T cells): 1.01
  Immunogenic (yes/no): Yes

## MDLTAIYETMQIFVKT [FUS30, gene fusion ZFP36-> UBC]
CD4+ T cells
  Fold change (CD4+) vs. DMSO: 51.81
  Frequency (TNFα+ IFNγ+ CD4 T cells): 0.1
CD8+ T cells
  Fold change (CD8+) vs. DMSO: 3.5
  Frequency (TNFα+ IFNγ+ CD8 T cells): 0.13
  Immunogenic (yes/no): Yes
